# pIC50: −log10 of the molar value.
# Biological target: T1, human Werner helicase (WRN-BV08, Uniprot Q14191, amino acids 517-1235 with L1074F point mutation) (Homo sapiens, UniProt Q14191, L1074F)
# T1 construct: Uniprot Q14191, amino acids 517-1235 with L1074F point mutation; TEV-cleavable 8×His (C, cleaved yes); made in house; host or cells: Sf9 insect cells (baculovirus)
# Assay: WRN (BV08) ADP-Glo Assay
# Assay type: biochemical
# Conditions: 0.15 nM WRN, 5 μM ATP, 0.1 nM DNA duplex, 15 min preincubation, 60 min at 25° C., pH 7.5, 1% DMSO; read-out: ADP-Glo_hWRN_IC50
# Outline: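 Untagged WRN (Sf9-expressed, TEV-cleaved) at 0.15 nM was preincubated 15 min at 25 °C with compound, then reacted 60 min at 25 °C with 5 μM ATP and 0.1 nM DNA duplex in Bicine pH 7.5, 1 mM MgCl2. ADP-Glo luminescence gave % inhibition; IC50 by four-parameter fit.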
# T1 sequence (Q14191 with tags, fused parts or gaps L1074F limits assumed): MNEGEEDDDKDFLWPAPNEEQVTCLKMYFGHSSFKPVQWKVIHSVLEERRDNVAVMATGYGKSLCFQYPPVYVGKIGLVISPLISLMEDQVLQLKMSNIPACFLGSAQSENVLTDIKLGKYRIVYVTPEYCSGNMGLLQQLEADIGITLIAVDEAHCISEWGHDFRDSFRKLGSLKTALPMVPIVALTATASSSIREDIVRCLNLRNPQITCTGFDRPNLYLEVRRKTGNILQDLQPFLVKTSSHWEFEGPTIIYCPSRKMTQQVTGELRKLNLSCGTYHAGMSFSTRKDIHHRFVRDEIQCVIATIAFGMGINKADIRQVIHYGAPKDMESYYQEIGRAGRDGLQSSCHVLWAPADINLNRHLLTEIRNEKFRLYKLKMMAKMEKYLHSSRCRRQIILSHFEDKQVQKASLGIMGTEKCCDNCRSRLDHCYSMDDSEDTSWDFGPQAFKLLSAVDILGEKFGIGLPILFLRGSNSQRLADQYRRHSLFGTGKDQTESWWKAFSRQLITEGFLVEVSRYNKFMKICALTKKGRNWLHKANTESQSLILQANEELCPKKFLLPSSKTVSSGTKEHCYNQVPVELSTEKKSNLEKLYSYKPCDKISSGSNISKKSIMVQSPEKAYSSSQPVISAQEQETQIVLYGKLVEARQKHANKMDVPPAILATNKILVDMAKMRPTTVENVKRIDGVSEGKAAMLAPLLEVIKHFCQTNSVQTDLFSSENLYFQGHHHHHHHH
row,Structure (SMILES),pIC50
1,"O=C(Cc1ccc(-n2cccc2)cc1)N(CC12CCC(CC1)CC2)C1C=CS(=O)(=O)C1 (centres unmarked) [I-545, N-({bicyclo[2.2.2]octan-1-yl}methyl)-N-(1,1-dioxo-2,3-dihydro-1lambda6-thiophen-3-yl)-2-[4-(1H-pyrrol-1-yl)phenyl]acetamide]",< 4.30
2,"N#Cc1ccc2c(CC(=O)N(Cc3ccncc3)C3C=CS(=O)(=O)C3)c[nH]c2c1 (centres unmarked) [I-546, 2-(6-cyano-1H-indol-3-yl)-N-(1,1-dioxo-2,3-dihydro-1lambda6-thiophen-3-yl)-N-[(pyridin-4-yl)methyl]acetamide]",< 4.30
3,"O=C(Cc1csc(-c2ccccc2)n1)N(Cc1ccncc1)C1C=CS(=O)(=O)C1 (centres unmarked) [I-547, N-(1,1-dioxo-2,3-dihydro-1lambda6-thiophen-3-yl)-2-(2-phenyl-1,3-thiazol-4-yl)-N-[(pyridin-4-yl)methyl]acetamide]",< 4.30
4,"CS(=O)(=O)N1CCN(C(C(=O)N(Cc2ccncc2)C2C=CS(=O)(=O)C2)c2ccc(-c3ccc(F)cc3)cc2)CC1 (centres unmarked) [I-548, N-(1,1-dioxo-2,3-dihydro-1lambda6-thiophen-3-yl)-2-{4′-fluoro-[1,1′-biphenyl]-4-yl}-2-(4-methanesulfonylpiperazin-1-yl)-N-[(pyridin-4-yl)methyl]acetamide]",< 4.30
5,"O=C(Cc1ccc(-n2cccc2)cc1)N(C1C=CS(=O)(=O)C1)[C@H]1CCOc2ccccc21 (stereo partly drawn) [I-550, N-[(4S)-3,4-dihydro-2H-1-benzopyran-4-yl]-N-(1,1-dioxo-2,3-dihydro-1lambda6-thiophen-3-yl)-2-[4-(1H-pyrrol-1-yl)phenyl]acetamide]",< 4.30
6,"CN(C)C(=O)CC(C(=O)N(Cc1ccncc1)C1C=CS(=O)(=O)C1)c1ccc(-n2cccc2)cc1 (centres unmarked) [I-551, N-(1,1-dioxo-2,3-dihydro-1lambda6-thiophen-3-yl)-N′,N′-dimethyl-N-[(pyridin-4-yl)methyl]-2-[4-(1H-pyrrol-1-yl)phenyl]butanediamide]",< 4.30
7,"O=C(CC1CCN(c2ccccc2)CC1)N(Cc1ccncc1)C1C=CS(=O)(=O)C1 (centres unmarked) [I-552, N-(1,1-dioxo-2,3-dihydro-1lambda6-thiophen-3-yl)-2-(1-phenylpiperidin-4-yl)-N-[(pyridin-4-yl)methyl]acetamide]",< 4.30
8,"O=C(c1ccncc1)N(CCc1ccc(-n2cccc2)cc1)C1C=CS(=O)(=O)C1 (centres unmarked) [I-553, N-(1,1-dioxo-2,3-dihydro-1lambda6-thiophen-3-yl)-N-{2-[4-(1H-pyrrol-1-yl)phenyl]ethyl}pyridine-4-carboxamide]",< 4.30
9,"CS(=O)(=O)N1CCN(C(C(=O)N(Cc2ccncc2)C2C=CS(=O)(=O)C2)c2ccc(-n3cccc3)cc2)CC1 (centres unmarked) [I-554, N-(1,1-dioxo-2,3-dihydro-1lambda6-thiophen-3-yl)-2-(4-methanesulfonylpiperazin-1-yl)-N-[(pyridin-4-yl)methyl]-2-[4-(1H-pyrrol-1-yl)phenyl]acetamide]",< 4.30
10,"COc1ccc(-c2ccc(CC(=O)N(Cc3ccncc3)C3C=CS(=O)(=O)C3)cc2)cc1 (centres unmarked) [I-555, N-(1,1-dioxo-2,3-dihydro-1lambda6-thiophen-3-yl)-2-{4′-methoxy-[1,1′-biphenyl]-4-yl}-N-[(pyridin-4-yl)methyl]acetamide]",< 4.30
11,"COc1cccc(-c2ccc(CC(=O)N(Cc3ccncc3)C3C=CS(=O)(=O)C3)cc2)c1 (centres unmarked) [I-556, N-(1,1-dioxo-2,3-dihydro-1lambda6-thiophen-3-yl)-2-{3′-methoxy-[1,1′-biphenyl]-4-yl}-N-[(pyridin-4-yl)methyl]acetamide]",< 4.30
12,"O=C(CN1CCN(c2ccccc2)CC1)N(Cc1ccncc1)C1C=CS(=O)(=O)C1 (centres unmarked) [I-557, N-(1,1-dioxo-2,3-dihydro-1lambda6-thiophen-3-yl)-2-(4-phenylpiperazin-1-yl)-N-[(pyridin-4-yl)methyl]acetamide]",< 4.30
13,"O=C(Cc1ccc(-c2nnco2)cc1)N(Cc1ccncc1)C1C=CS(=O)(=O)C1 (centres unmarked) [I-558, N-(1,1-dioxo-2,3-dihydro-1lambda6-thiophen-3-yl)-2-[4-(1,3,4-oxadiazol-2-yl)phenyl]-N-[(pyridin-4-yl)methyl]acetamide]",< 4.30
14,"CC(C)C(=O)NC(Cc1c[nH]c2ccccc12)C(=O)N(Cc1ccncc1)C1C=CS(=O)(=O)C1 (centres unmarked) [I-559, N-(1,1-dioxo-2,3-dihydro-1lambda6-thiophen-3-yl)-3-(1H-indol-3-yl)-2-(2-methylpropanamido)-N-[(pyridin-4-yl)methyl]propanamide]",< 4.30
15,"O=C(CCc1cnc2n1CCCCC2)N(Cc1ccncc1)C1C=CS(=O)(=O)C1 (centres unmarked) [I-560, N-(1,1-dioxo-2,3-dihydro-1lambda6-thiophen-3-yl)-3-{5H,6H,7H,8H,9H-imidazo[1,2-a]azepin-3-yl}-N-[(pyridin-4-yl)methyl]propanamide]",< 4.30
16,"CNC(=O)CC(C(=O)N(Cc1ccncc1)C1C=CS(=O)(=O)C1)c1ccc(-c2ccc(F)cc2)cc1 (centres unmarked) [I-562, N-(1,1-dioxo-2,3-dihydro-1lambda6-thiophen-3-yl)-2-{4′-fluoro-[1,1′-biphenyl]-4-yl}-N′-methyl-N-[(pyridin-4-yl)methyl]butanediamide]",< 4.30
17,"CC(=O)NCC(C(=O)N(Cc1ccncc1)C1C=CS(=O)(=O)C1)c1ccc(-c2ccc(F)cc2)cc1 (centres unmarked) [I-563, N-(1,1-dioxo-2,3-dihydro-1lambda6-thiophen-3-yl)-3-acetamido-2-{4′-fluoro-[1,1′-biphenyl]-4-yl}-N-[(pyridin-4-yl)methyl]propanamide]",< 4.30
18,"O=C(Cc1ccc(N2CCOCC2)cc1)N(Cc1ccncc1)C1C=CS(=O)(=O)C1 (centres unmarked) [I-564, N-(1,1-dioxo-2,3-dihydro-1lambda6-thiophen-3-yl)-2-[4-(morpholin-4-yl)phenyl]-N-[(pyridin-4-yl)methyl]acetamide]",< 4.30
19,"Cn1cc(CCC(=O)N(Cc2ccncc2)C2C=CS(=O)(=O)C2)c2ccc(Br)cc21 (centres unmarked) [I-565, 3-(6-bromo-1-methyl-1H-indol-3-yl)-N-(1,1-dioxo-2,3-dihydro-1lambda6-thiophen-3-yl)-N-[(pyridin-4-yl)methyl]propanamide]",< 4.30
20,"CC1=CC(N(Cc2ccccc2)C(=O)Cc2ccc(-n3cccc3)cc2)CS1(=O)=O (centres unmarked) [I-566, 2-(4-(1H-pyrrol-1-yl)phenyl)-N-benzyl-N-(5-methyl-1,1-dioxido-2,3-dihydrothiophen-3-yl)acetamide]",< 4.30
21,"CN(C)Cc1cccn1-c1ccc(CC(=O)N(Cc2ccccc2)C2C=CS(=O)(=O)C2)cc1 (centres unmarked) [I-567, N-benzyl-2-(4-{2-[(dimethylamino)methyl]-1H-pyrrol-1-yl}phenyl)-N-(1,1-dioxo-2,3-dihydro-1lambda6-thiophen-3-yl)acetamide]",< 4.30
22,"COCc1cccn1-c1ccc(CC(=O)N(Cc2ccccc2)C2C=CS(=O)(=O)C2)cc1 (centres unmarked) [I-568, N-benzyl-N-(1,1-dioxo-2,3-dihydro-1lambda6-thiophen-3-yl)-2-{4-[2-(methoxymethyl)-1H-pyrrol-1-yl]phenyl}acetamide]",< 4.30
23,"CC(C)(C)OC(=O)N1CC(C(=O)N(Cc2ccncc2)C2C=CS(=O)(=O)C2)c2ccc(-c3ccc(F)cc3)cc21 (centres unmarked) [I-569, tert-butyl 3-[(1,1-dioxo-2,3-dihydro-1lambda6-thiophen-3-yl)[(pyridin-4-yl)methyl]carbamoyl]-6-(4-fluorophenyl)-2,3-dihydro-1H-indole-1-carboxylate]",< 4.30

# From patent US20260297070A1, “CYCLIC [COMPOUND LEFT OUT] WRN INHIBITORS” (Nimbus Wadjet, Inc., priority 2023, published 2026)
